# Patent publication US20230220065A1, “ANTIBODIES TO INTERLEUKIN-1BETA AND USES THEREOF” (ACADEMIA SINICA, priority 2020, published 2023)
# Entries after “also recorded” stand apart in the source; their conditions may differ.
# Key:
# [1] = system: IL-1β-induced NF-κB signaling in HEK-blue IL-1β cells; assay: In vitro IL-1β neutralization assay in HEK-blue IL-1β reporter cells (SEAP); format: cell-based, human
# Text: FIG. 1 illustrates inhibitory effect on IL-1β-induced NF-κB signaling of different selected IgGs from generic human phage-display libraries in HEK-blue IL-1β cells. (A) IL-1β bound to its receptor IL-1RI and its receptor accessory protein IL-1RAcP to form the IL-1β/IL-1RI/IL-1RAcP ternary complex. IL-1β induces downstream signaling pathways, including NF-κB activation (IκB degradation) and AP-1 activation (phosphorylation of JNK, p38 and ERK). (B) Ten IgGs bound to human IL-1β were selected from the generic human phage-display library.
# FIG. 4 illustrates the comparison of IL-1β neutralizing abilities in different IL-1β-neutralizing antibodies. IL-1β was diluted from 1500 to 0 pM. Each antibody was added at a 5 nM concentration with different concentrations of IL-1β. HEK-blue-IL-1β cells were used to detect the IgG inhibitory effects of IL-1β signaling. The binding curve was fitted by a nonlinear regression curve to obtain the IC50.
# FIG. 8 illustrates binding affinities and inhibitory effects of IgG variants selected from optimized IgG26 phage-display libraries. […] (B) Inhibitory effects on IL-1β-mediated downstream signaling were examined in 30 pM IL-1β-stimulated HEK-blue reporter cells. […]
# After 16 hours, the inhibitory effect of IL-1β-induced signaling was monitored by SEAP assay. […]
# human IL-1β-induced IL-6 = assay: Cytokine biomarker assay: human IL-1β-induced serum IL-6 in mice; format: in vivo; conditions: 0.2 mg/kg antibody intravenously, human IL-1β 240 ng/mouse intraperitoneally, male C57BL/6 mice
# Experimental: FIG. 5 illustrates cytokine biomarker assay. (A) The concentration of injected IgG1 at different time courses to compare the stability of IgG in male C57BL/6 mouse serum. […] Then, the mice were injected intraperitoneally with human IL-1β (240 ng/200 μL/mouse). Two hours after the injection, the mice were restrained, and blood was collected to detect the serum IL-6 level in the mice. IgG26AW treatment can inhibit the 40% induction of IL-6, which responds to human IL-1β boosting.
# Then, the mice were injected intraperitoneally with recombinant human IL-1β (R&D systems) 240 ng/200 μL/mouse; then, 2.5 hours after the injection (peak IL-6 response time), the mice were restrained, and blood was collected via a facial vein with a lancet. Serum mouse IL-6 levels were measured using a Quantikine ELISA Kit (R&D System) according to the manufacturer's protocol.
# To determine whether various rodent and primate disease models could be used to test the in vivo efficacy of IgG26AW, the ability of IgG26AW to bind a number of species orthologs of IL-1β was measured by SPR. […] This affinity is not sufficient to test IgG26AW efficacy in mouse disease models. […] Moreover, concentrations of IgGs after the injection in the serum were evaluated in different time courses.
# [2] = target: recombinant human IL-1β (117-269 amino acids, without the pro-peptide region) (human) (UniProt P01584)
# [3] = target: recombinant human IL-1β (R&D systems) (human) (UniProt P01584)
compound,measurement,setting,value
"O=C(OC[C@H]1O[C@@H](OC(=O)c2cc(O)c(O)c(O)c2)[C@H](OC(=O)c2cc(O)c(O)c(O)c2)[C@@H](OC(=O)c2cc(O)c(O)c(O)c2)[C@@H]1OC(=O)c1cc(O)c(O)c(O)c1)c1cc(O)c(O)c(O)c1 [PGG, 1,2,3,4,6-Penta-O-Galloyl-β-D-Glucose]",NF-κB signaling inhibition of low dose IgG26AW combined with PGG,"[1]; 69 pM IgG26AW combined with 50 μM PGG, IL-1β 588 to 0 pM (FIG. 14)",efficiently inhibits the NF-κB signaling as similar as 690 pM IgG26AW can do
same,effect of PGG cotreatment with IgG26AW on IL-1β induced NF-κB signaling,"[1]; 75 pM IL-1β, IgG26AW 69 nM to 0 nM, PGG 30 μM or 50 μM (FIG. 13)",synergistically reduce NF-kB signaling; also recorded: dose-dependent inhibitory effect on NF-κB signaling
"canakinumab: marketed anti-IL-1β antibody (Novartis), synthesized from patent US20090232803",inhibition of human IL-1β-induced systemic (serum) IL-6,human IL-1β-induced IL-6,47%
canakinumab (antibody),"IL-1β concentration whose NF-κB signal is half inhibited by 5 nM antibody (HEK-blue IL-1β cells, SEAP assay; called IC50 in the legend)",[2],925 pM
same,"human IL-1β-induced systemic IL-6 expression in C57BL/6 mice (serum mouse IL-6, ELISA)",[3],47%
